Source: patent publication US5578608A, “Symmetrical diaryl and diheteroanyl cis epoxy alkanes antiviral compounds” (Eli Lilly and Company, priority 1995, dated 1996)
Like-named read-outs stand apart in the source and are kept apart here.

Target: T1, HIV-1 protease (Human immunodeficiency virus type 1 group M subtype B, UniProt P04585)
T1 construct: made in house; host or cells: E. coli K12 L507/pHP10D (NRRL B-18560)
Test: biochemical
Conditions: for inhibition at 1 µg/mL: at 1000 ng/ml, read-out: Fluorescence Assay, given as ICxx (1000): xx is the percent inhibition
Procedure: A culture of E. coli K12 L507/pHP10D was grown to mid-log phase at 32° C. in LB media containing 12.5 μg/ml tetracycline. The cultivation temperature was quickly elevated to 40° C. to induce gene expression, and the cells were allowed to grow for 2.5 hours at this temperature before the culture was quickly chilled on ice. The cells were centrifuged and the cell pellet was resuspended in 20 mL 50 mmol MES buffer (pH 6.0) containing 1 mmol EDTA, 1 mmol DTT, 1 mmol PMSF and 10% glycerol ("Buffer A"). Cells were lysed by sonication using a Fischer Model 300 Dismembrator and a microtip probe. Following centrifugation at 27,000 x g, the supernatant was diluted to a total volume of 60 mL with Buffer A and loaded onto a 2.0×19 cm QAE-Sepharose column (1 mL/min, 4° C.), that had been equilibrated in Buffer A. The column was washed isocratically for 180 min and then eluted with a gradient eluent of 0-1.0M NaCl in Buffer A over 120 min. Enzymatic activity was measured by HPLC using the synthetic peptide SQNYPIV as described in Margolin et al., Biochem. Biophys. Res. Commun., […], 554-560 (1990); the production of the p1 peptide (SQNY) was measured.
N^a -Biotin-[…]N^e -FITC)-OH SEQ ID NO: 1
The following buffers and solutions are used in the Fluorescence HIV-1 Protease Inhibitor Assay:
To each well of a round bottom, 96-well plate is added 20 μL of the Enzyme Solution followed by 10 μL of the compound to be evaluated in a 20% aqueous dimethylsulfoxide solution. Purified HIV-1 protease was obtained as described above. The resulting solution is incubated for one hour at room temperature and then 20 μL of a solution containing the substrate, N^a -Biotin-[…]N^e-FITC)-OH, in MES-ALB buffer ([…]) is added to each well. The solutions are then incubated for 16 hours at room temperature and then each well is diluted with 150 μL of MES-ALB buffer.
To each well of a second round bottom, 96-well Pandex plate is added 25 uL of the Avidin Coated Beads Solution. Then, to each well is added 25 μL of the diluted incubation solutions, prepared above. The solutions are mixed thoroughly and the plates are loaded into a Pandex® machine, washed, evacuated and read. Sample detection was performed by excitation at 485 nm, reading the resulting epifluorescence at 535 nm.

[1] = read-out: Fluorescence Assay IC50 (converted)

| Compound | IC50 [1] [nM] | inhibition at 1 µg/mL [%] | other results |
| --- | --- | --- | --- |
| CC(C)(C)C(NC(=O)OCc1cccnc1)C(=O)NC(Cc1ccccc1)C1OC1C(Cc1ccccc1)NC(=O)C(NC(=O)OCc1cccnc1)C(C)(C)C [Example 23, 1,6-Diphenyl-2(S),5(S)-di[N-[2(S)-N(pyrid-3-ylmethoxycarbonyl)amino-3,3-dimethylbutanoyl]amino]-3,4-cis-epoxyhexane] | – | – | Fluorescence Assay IC50 (16 h incubation at room temperature, MES-ALB buffer pH 5.5, normalized to a positive control): 0.497 µg/mL |
| CC[C@H](NC(=O)N(C)Cc1ccccn1)C(=O)N[C@@H](Cc1ccccc1)[C@@H]1O[C@@H]1[C@H](Cc1ccccc1)NC(=O)[C@H](CC)NC(=O)N(C)Cc1ccccn1 [Example 28, 1,6-Diphenyl-2(S),5(S)-di[N-[2(S)-N[[N(methyl)-N(pyrid-2-ylmethyl)amino]carbonyl]aminobutanoyl]amino]-3,4-cis-epoxyhexane] | 1090 | – | – |
| CN(Cc1ccc2ccccc2n1)C(=O)N[C@@H](CC#N)C(=O)N[C@@H](Cc1ccccc1)[C@@H]1O[C@@H]1[C@H](Cc1ccccc1)NC(=O)[C@H](CC#N)NC(=O)N(C)Cc1ccc2ccccc2n1 [Example 27, 1,6-Diphenyl-2(S),5(S)-di [N-[2(S)-N[[N(methyl)-N(quinolin-2-ylmethyl)amino]carbonyl]amino-3-cyanopropanoyl]amino]-3,4-cis-epoxyhexane] | 30.7 | – | – |
| CC[C@H](C)[C@H](NC(=O)NCc1ccccn1)C(=O)N[C@@H](Cc1ccccc1)[C@@H]1O[C@@H]1[C@H](Cc1ccccc1)NC(=O)[C@@H](NC(=O)NCc1ccccn1)[C@@H](C)CC [Example 31] | 32.4 | – | – |
| CC(C)[C@H](NC(=O)OCc1ccccn1)C(=O)N[C@@H](CCc1ccccc1)[C@@H]1O[C@@H]1[C@H](CCc1ccccc1)NC(=O)[C@@H](NC(=O)OCc1ccccn1)C(C)C [Example 36] | – | 26 | – |
| CCC(NC(=O)N(C)Cc1ccccn1)C(=O)NC(CSc1ccc2ccccc2c1)C1OC1C(CSc1ccc2ccccc2c1)NC(=O)C(CC)NC(=O)N(C)Cc1ccccn1 [Example 35, 1,6-Dinaphth-2-ylthio-2(S),5(S)-di[N-[2(S)-N-[[N(methyl)-N (pyrid-2-ylmethyl)amino]carbonyl]aminobutanoyl]amino]-3,4-cis-epoxyhexane] | – | 23 | – |
| CC[C@H](NC(=O)OCc1ccc2ccccc2n1)C(=O)N[C@@H](Cc1ccccc1)[C@@H]1O[C@@H]1[C@H](Cc1ccccc1)NC(=O)[C@H](CC)NC(=O)OCc1ccc2ccccc2n1 [Example 10, 1,6-Diphenyl-2(S),5(S)-di[N-[2(S)-N[(quinolin-2-ylmethoxy)carbonyl]aminobutanoyl]amino]-3,4-cis-epoxyhexane] | 2.19 | – | – |
| CC(C)[C@H](NC(=O)OCc1ccc2cccc(F)c2n1)C(=O)N[C@@H](Cc1ccccc1)[C@@H]1O[C@@H]1[C@H](Cc1ccccc1)NC(=O)[C@@H](NC(=O)OCc1ccc2cccc(F)c2n1)C(C)C [Example 17, 1,6-Diphenyl-2(S),5(S)-di[N-[2(S)-N[(8-fluoroquinolin-2-ylmethoxy)carbonyl]amino-3-methylbutanoyl]amino]-3,4-cis-epoxyhexane] | – | – | IC50 (read-out: Fluorescence Assay average IC50 (marked *) (converted)): 23.1 nM |
| CC[C@H](C)[C@H](NC(=O)N(C)Cc1ccccn1)C(=O)N[C@@H](Cc1ccc2ccccc2c1)[C@@H]1O[C@@H]1[C@H](Cc1ccc2ccccc2c1)NC(=O)[C@@H](NC(=O)N(C)Cc1ccccn1)[C@@H](C)CC [Example 33, 1,6-Dinaphth-2-yl-2(S),5(S)-di[N-[2(S)-N-[[N(methyl)-N(pyrid-2-ylmethyl)amino]carbonyl]amino-3(S)-methylpentanoyl]amino]-3,4-cis-epoxyhexane] | – | 25 | – |
| CC(C)[C@H](NC(=O)c1ccc2ccccc2n1)C(=O)N[C@@H](Cc1ccccc1)[C@@H]1O[C@@H]1[C@H](Cc1ccccc1)NC(=O)[C@@H](NC(=O)c1ccc2ccccc2n1)C(C)C [Example 26, 1,6-Diphenyl-2(S),5(S)-di[N-[2(S)-N(quinolin-2-ylcarbonyl)amino-3-methylbutanoyl]amino]-3,4-cis-epoxyhexane] | – | 23 | – |
